test system: human plasma; assay: Measurement of intrinsic coagulation time (APTT) in vitro; type: biochemical; details: APTT reagent, 37° C., calcium chloride 25 mM
Protocol: Activated partial thromboplastin time (APTT) is measured in the presence of the test compounds of the present invention diluted at various concentrations. To be more specific, each of the test compounds diluted with DMSO at various concentrations is mixed with human plasma and APTT reagent. The mixture is incubated at 37° C. for 2 minutes; calcium chloride (25 mM) is added to the mixture; and the coagulation time is thereafter measured. It should be noted that the anticoagulant activity of the test compound is described in terms of the concentration required to double the coagulation time for the case where no test compound is added.

Structure (SMILES)	Concentration when APTT was doubled
CC(=O)NCC12CN(S(=O)(=O)c3cc4cc(Cl)ccc4[nH]3)CC(=O)N1CC1(CCN(C(C)=O)CC1)N2C (single isomer, unassigned) [Example 21, optically active 1′-acetyl-8a-(acetylaminomethyl)-7-[(5-chloro-1H-indol-2-yl)sulfonyl]tetrahydro-1-methyl-spiro[imidazo[1,2-a]pyrazine-2(3H),4′-piperidin]-5(1H)-one]	0.36 µM
CCOC(=O)CN(C)CC12CN(S(=O)(=O)c3cc4cc(Cl)ccc4[nH]3)C[C@@H](O)N1CC1(CCN(C(=O)CC)CC1)O2 (single isomer, unassigned) [Example 64, optically active 7-[(5-chloro-1H-indol-2-yl)sulfonyl]tetrahydro-8a-[(N-ethoxycarboxymethyl)-N-methylaminomethyl]-1′-propanoyl-spiro[5H-oxazolo[3,2-a]pyrazine-2(3H),4′-piperidin]-5-one]	0.89 µM
C=CC(=O)N1CCC2(CC1)CN1C(=O)CN(S(=O)(=O)c3cc4cc(Cl)ccc4[nH]3)CC1(COC)N2C (single isomer, unassigned; (-)) [Example 4, (−)-7-[(5-chloro-1H-indol-2-yl)sulfonyl]tetrahydro-8a-(methoxymethyl)-1-methyl-1′-propenoyl-spiro[imidazo[1,2-a]pyrazine-2(3H),4′-piperidin]-5(1H)-one]	0.5 µM
COCC12CN(S(=O)(=O)/C=C/c3ccc(Cl)s3)CC(=O)N1CC1(CCN(C(C)=O)CC1)N2C (single isomer, unassigned; (-)) [Example 14, (−)-1′-acetyl-7-[[(1E)-2-(5-chloro-2-thienyl)ethenyl]sulfonyl]tetrahydro-8a-(methoxymethyl)-1-methyl-spiro[imidazo[1,2-a]pyrazine-2(3H),4′-piperidin]-5(1H)-one]	0.64 µM
C#CC(=O)N1CCC2(CC1)CN1C(=O)CN(S(=O)(=O)c3cc4ccc(Cl)cc4s3)CC1(COC)N2C (single isomer, unassigned; (-)) [Example 17, (−)-7-[(6-chloro-benzo[b]thiophen-2-yl)sulfonyl]tetrahydro-8a-(methoxymethyl)-1-methyl-1′-propinoyl-spiro[imidazo[1,2-a]pyrazine-2(3H),4′-piperidin]-5(1H)-one]	0.87 µM
CCN1C2(CCN(C(C)=O)CC2)CN2C(=O)CN(S(=O)(=O)c3cc4cc(Cl)ccc4[nH]3)CC21COC (single isomer, unassigned; (-)) [Example 23, (−)-1′-acetyl-7-[(5-chloro-1H-indol-2-yl)sulfonyl]tetrahydro-1-ethyl-8a-(methoxymethyl)-spiro[imidazo[1,2-a]pyrazine-2(3H),4′-piperidin]-5(1H)-one]	0.19 µM
CCC(=O)N1CCC2(CC1)CN1C(=O)CN(S(=O)(=O)c3cc4cc(Cl)ccc4[nH]3)CC1(COC)N2 (single isomer, unassigned; (-)) [Example 26, (−)-7-[(5-chloro-1H-indol-2-yl)sulfonyl]tetrahydro-8a-(methoxymethyl)-1′-propanoyl-spiro[imidazo[1,2-a]pyrazine-2(3H),4′-piperidin]-5(1H)-one]	0.44 µM
COCC12CN(S(=O)(=O)/C=C/c3ccc(Cl)s3)CC(=O)N1CC1(CCN(C(C)=O)CC1)O2 (single isomer, unassigned; (-)) [Example 36, (−)-1′-acetyl-7-[[(1E)-2-(5-chloro-2-thienyl)ethenyl]sulfonyl]tetrahydro-8a-(methoxymethyl)-spiro[5H-oxazolo[3,2-a]pyrazine-2(3H),4′-piperidin]-5-one]	0.83 µM
O=C(C1CC1)N1CCC2(CC1)CN1C(=O)CN(S(=O)(=O)c3cc4cc(Cl)ccc4[nH]3)CC1(CO)O2 (single isomer, unassigned; (-)) [Example 52, (−)-7-[(5-chloro-1H-indol-2-yl)sulfonyl]tetrahydro-1′-cyclopropanoyl-8a-(hydroxymethyl)-spiro[5H-oxazolo[3,2-a]pyrazine-2(3H),4′-piperidin]-5-one]	0.57 µM
COC(=O)COCC12CN(S(=O)(=O)c3cc4cc(Cl)ccc4[nH]3)CC(=O)N1CC1(CCN(C(C)=O)CC1)O2 (single isomer, unassigned; (-)) [Example 54, (−)-1′-acetyl-7-[(5-chloro-1H-indol-2-yl)sulfonyl]tetrahydro-8a-(methoxycarbonylmethoxymethyl)-spiro[5H-oxazolo[3,2-a]pyrazine-2(3H),4′-piperidin]-5-one]	0.4 µM
CC(=O)N1CCC2(CC1)CN1C(=O)CN(S(=O)(=O)c3cc4cc(Cl)ccc4[nH]3)CC1(COc1ncccn1)O2 (single isomer, unassigned; (-)) [Example 56, (−)-1′-acetyl-7-[(5-chloro-1H-indol-2-yl)sulfonyl]tetrahydro-8a-(2-pyrimidyloxymethyl)-spiro[5H-oxazolo[3,2-a]pyrazine-2(3H),4′-piperidin]-5-one]	0.5 µM

biological target: T1, human FXa (Homo sapiens, UniProt P00742); assay: Measurement of the human FXa inhibitory action; type: biochemical; details: human FXa 0.019 U/ml, substrate S-2222 0.4 mM, 37° C., Tris-HCl buffer pH 7.5
T1 construct: purchased Enzyme Research Laboratories, Inc
T1 sequence (P00742 235-488 limits assumed): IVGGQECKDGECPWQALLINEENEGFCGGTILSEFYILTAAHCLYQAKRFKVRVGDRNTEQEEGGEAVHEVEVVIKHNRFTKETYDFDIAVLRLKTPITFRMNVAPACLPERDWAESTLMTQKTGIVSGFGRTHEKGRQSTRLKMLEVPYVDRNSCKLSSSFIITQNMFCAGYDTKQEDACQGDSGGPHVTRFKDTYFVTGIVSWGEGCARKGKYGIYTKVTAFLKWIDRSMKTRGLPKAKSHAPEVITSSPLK
T1 sequence (P00742 41-179 partner limits assumed): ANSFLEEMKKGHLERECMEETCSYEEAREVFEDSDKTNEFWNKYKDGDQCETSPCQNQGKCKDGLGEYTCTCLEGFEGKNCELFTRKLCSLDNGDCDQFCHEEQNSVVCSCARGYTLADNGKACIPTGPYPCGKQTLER
Protocol: In vitro FXa inhibitory activity may be measured according to the method of Kettner et al. (Journal of Biological Chemistry, vol. 265, pages 18289 to 18297, 1990). To be more specific, human FXa (product of Enzyme Research Laboratories, Inc., 0.019 U/ml) is mixed with the specimens (of the compound of the present invention) prepared by diluting the compound of the invention with dimethylsulfoxide (DMSO) to different concentrations and synthetic substrate S-2222 (Chromogenix AB, 0.4 mM), and the mixtures are incubated at 37° C. in Tris-hydrochloric acid buffer (pH 7.5). The FXa inhibitory activity of the specimen is calculated by continuously observing the absorbance at 405 nm, and comparing the initial speed with the initial speed in the absence of the specimen.
It should be noted that the FXa inhibitory activity of the specimen is generally indicated as IC50.

Structure (SMILES)	IC50
CC(=O)N1CCC2(CC1)CN1C(=O)CN(S(=O)(=O)c3cc4cc(Cl)ccc4[nH]3)CC1(CN(C)C)O2 (single isomer, unassigned) [Example 60, optically active 1′-acetyl-7-[(5-chloro-1H-indol-2-yl)sulfonyl]tetrahydro-8a-(N,N-dimethylaminomethyl)-spiro[5H-oxazolo[3,2-a]pyrazine-2(3H),4′-piperidin]-5-one]	4.5 nM
CCC(=O)N1CCC2(CC1)CN1C(=O)CN(S(=O)(=O)c3cc4cc(Cl)ccc4[nH]3)CC1(CN(C)CC(=O)O)O2 (single isomer, unassigned) [Example 66, optically active N-[[7-[(5-chloro-1H-indol-2-yl)sulfonyl]tetrahydro-5-oxo-1′-propanoyl-spiro[5H-oxazolo[3,2-a]pyrazine-2(3H),4′-piperidin]-8a-yl]methyl]-N-methylglycine]	1.6 nM
C#CC(=O)N1CCC2(CC1)CN1C(=O)CN(S(=O)(=O)c3cc4ccc(Cl)cc4s3)CC1(COC)N2C (single isomer, unassigned; (-)) [Example 17, (−)-7-[(6-chloro-benzo[b]thiophen-2-yl)sulfonyl]tetrahydro-8a-(methoxymethyl)-1-methyl-1′-propinoyl-spiro[imidazo[1,2-a]pyrazine-2(3H),4′-piperidin]-5(1H)-one]	6.5 nM
CCC(=O)N1CCC2(CC1)CN1C(=O)CN(S(=O)(=O)c3cc4cc(Cl)ccc4[nH]3)CC1(COC)N2 (single isomer, unassigned; (-)) [Example 26, (−)-7-[(5-chloro-1H-indol-2-yl)sulfonyl]tetrahydro-8a-(methoxymethyl)-1′-propanoyl-spiro[imidazo[1,2-a]pyrazine-2(3H),4′-piperidin]-5(1H)-one]	5.7 nM

More lines, now with the values ahead:

IC50	Structure (SMILES)
5.6 nM	CC(=O)NCC12CN(S(=O)(=O)c3cc4cc(Cl)ccc4[nH]3)CC(=O)N1CC1(CCN(C(C)=O)CC1)N2C (single isomer, unassigned) [Example 21, optically active 1′-acetyl-8a-(acetylaminomethyl)-7-[(5-chloro-1H-indol-2-yl)sulfonyl]tetrahydro-1-methyl-spiro[imidazo[1,2-a]pyrazine-2(3H),4′-piperidin]-5(1H)-one]
5.7 nM	COCC12CN(S(=O)(=O)c3cc4cc(Cl)ccc4[nH]3)CC(=O)N1CC1(CCN(C(C)=O)CC1)N2C (single isomer, unassigned; (-)) [Example 1, (−)-1′-acetyl-7-[(5-chloro-1H-indol-2-yl)sulfonyl]tetrahydro-8a-(methoxymethyl)-1-methyl-spiro[imidazo[1,2-a]pyrazine-2(3H),4′-piperidin]-5(1H)-one]
1.8 nM	CCC(=O)N1CCC2(CC1)CN1C(=O)CN(S(=O)(=O)c3cc4cc(Cl)ccc4[nH]3)CC1(COC)N2C (single isomer, unassigned; (-)) [Example 2, (−)-7-[(5-chloro-1H-indol-2-yl)sulfonyl]tetrahydro-8a-(methoxymethyl)-1-methyl-1′-propanoyl-spiro[imidazo[1,2-a]pyrazine-2(3H),4′-piperidin]-5(1H)-one]
1.3 nM	COCC12CN(S(=O)(=O)c3cc4cc(Cl)ccc4[nH]3)CC(=O)N1CC1(CCN(C(=O)C3CCC3)CC1)N2C (single isomer, unassigned; (-)) [Example 3, (−)-7-[(5-chloro-1H-indol-2-yl)sulfonyl]-1′-cyclobutanecarbonyl-tetrahydro-8a-(methoxymethyl)-1-methyl-spiro[imidazo[1,2-a]pyrazine-2(3H),4′-piperidin]-5(1H)-one]
2.6 nM	C#CC(=O)N1CCC2(CC1)CN1C(=O)CN(S(=O)(=O)c3cc4cc(Cl)ccc4[nH]3)CC1(COC)N2C (single isomer, unassigned; (-)) [Example 13, (−)-7-[(5-chloro-1H-indol-2-yl)sulfonyl]tetrahydro-8a-(methoxymethyl)-1-methyl-1′-propinoyl-spiro[imidazo[1,2-a]pyrazine-2(3H),4′-piperidin]-5(1H)-one]
8.2 nM	COCC12CN(S(=O)(=O)c3cc4cc(Cl)ccc4[nH]3)CC(=O)N1CC1(CCN(C(C)=O)CC1)O2 (single isomer, unassigned; (-)) [Example 34, (−)-1′-acetyl-7-[(5-chloro-1H-indol-2-yl)sulfonyl]tetrahydro-8a-(methoxymethyl)-spiro[5H-oxazolo[3,2-a]pyrazine-2(3H),4′-piperidin]-5-one]
